Reference: article PMC7749635 (2021)

Tests used:
Test in all cases: in-line probing
[1] = test system: 65 pnuC (RNA, riboswitch) GGAAAAUCUAUAGAGCGUUGCGUCCGAAAGUCUAAACAGACACGGCUCUUUAAAAACAAAAGGAGAAG; settings: 20 mM Mg2+, 100 mM K+, 50 mM Tris-HCl pH 8.3, ~23 °C
[2] = test system: 85 pnuC (RNA, riboswitch) GGAGGAGAAGCGGUUCAAAUCGAAAAUCUAUAGAGCGUUGCGUCCGAAAGUCUAAACAGACACGGCUCUUUAAAAACAAAAGGAGAAG; settings: 20 mM Mg2+, 100 mM K+; 50 mM Tris-HCl pH 8.3, ~23 °C; tested at 0.1 and 1 mM
[3] = test system: M1 (G35U) (RNA, riboswitch) GGAAAAUCUAUAGAGCUUUGCGUCCGAAAGUCUAAACAGACACGGCUCUUUAAAAACAAAAGGAGAAG; settings: 20 mM Mg2+, 100 mM K+; 50 mM Tris-HCl pH 8.3, ~23 °C; tested at 1 mM
[4] = test system: M2 (A60U) (RNA, riboswitch) GGAAAAUCUAUAGAGCGUUGCGUCCGAAAGUCUAAACAGACUCGGCUCUUUAAAAACAAAAGGAGAAG; settings: 20 mM Mg2+, 100 mM K+; 50 mM Tris-HCl pH 8.3, ~23 °C; tested at 1 mM

For NC(=O)c1ccc[n+]([C@@H]2O[C@H](COP(=O)([O-])OP(=O)(O)OC[C@H]3O[C@@H](n4cnc5c(N)ncnc54)[C@H](O)[C@@H]3O)[C@@H](O)[C@H]2O)c1, the KD ([1]; apparent) was ~ 100 µM.

For NC(=O)c1ccc[n+]([C@@H]2O[C@H](COP(=O)(O)O)[C@@H](O)[C@H]2O)c1, the binding [2] was “yes”, the binding [3] was “no” and the binding [4] was “no”.

With Cc1cc2nc3c(=O)[nH]c(=O)nc-3n(C[C@H](O)[C@H](O)[C@H](O)COP(=O)(O)O)c2cc1C the binding [2] was “no”.

For Cc1ncc(C[n+]2csc(CCOP(=O)(O)OP(=O)(O)O)c2C)c(N)n1, the binding [2] was “no”.

In the case of O=C(O)c1cccnc1, the binding ([1]; tested at 0.1 and 1 mM) is reported as “no”.
